Laboratory results from the NIST ThermoML archive (doi:10.1016/j.tca.2014.05.028).

Assay: xn = mol fraction of the nth substance listed
Conditions: 101 kPa, Liquid; for viscosity: Falling or rolling sphere viscometry; for mass density: Vibrating tube method

CCCCC[N+]1(C)CCCC1.[Br-] [1-methyl-1-pentylpyrrolidinium bromide] + O
Conditions	mass density [kg/m3]	viscosity [mPa·s]
298.15 K, x1 = 0.0313	1054.87	1.987
298.15 K, x1 = 0.0592	1089.64	3.402
298.15 K, x1 = 0.0944	1119.19	6.013
298.15 K, x1 = 0.1301	1139.59	10.08
298.15 K, x1 = 0.1566	1150.73	14.2
298.15 K, x1 = 0.1964	1163.63	22.59
298.15 K, x1 = 0.2468	1175.13	38.27
298.15 K, x1 = 0.3028	1184.58	66.43
298.15 K, x1 = 0.3503	1190.28	102.55
298.15 K, x1 = 0.4097	1195.59	175.43
298.15 K, x1 = 0.445	1198.37	241.18
298.15 K, x1 = 1	1188.96	–
303.15 K, x1 = 0.0313	1052.43	1.728
303.15 K, x1 = 0.0592	1086.59	2.903
303.15 K, x1 = 0.0944	1115.78	5.036
303.15 K, x1 = 0.1301	1136.1	8.404
303.15 K, x1 = 0.1566	1147.25	11.61
303.15 K, x1 = 0.1964	1160.15	18.05
303.15 K, x1 = 0.2468	1171.69	29.76
303.15 K, x1 = 0.3028	1181.21	50.36
303.15 K, x1 = 0.3503	1186.96	76.83
303.15 K, x1 = 0.4097	1192.35	128.64
303.15 K, x1 = 0.445	1195.15	173.72
303.15 K, x1 = 1	1185.14	–
308.15 K, x1 = 0.0313	1049.86	1.469
308.15 K, x1 = 0.0592	1083.44	2.433
308.15 K, x1 = 0.0944	1112.34	4.142
308.15 K, x1 = 0.1301	1132.57	6.871
308.15 K, x1 = 0.1566	1143.72	9.343
308.15 K, x1 = 0.1964	1156.64	14.22
308.15 K, x1 = 0.2468	1168.24	22.83
308.15 K, x1 = 0.3028	1177.83	37.83
308.15 K, x1 = 0.3503	1183.64	56.94
308.15 K, x1 = 0.4097	1189.09	93.53
308.15 K, x1 = 0.445	1191.92	124.68
308.15 K, x1 = 1	1181.35	–
313.15 K, x1 = 0.0313	1047.17	1.288
313.15 K, x1 = 0.0592	1080.23	2.104
313.15 K, x1 = 0.0944	1108.85	3.523
313.15 K, x1 = 0.1301	1129.01	5.794
313.15 K, x1 = 0.1566	1140.17	7.793
313.15 K, x1 = 0.1964	1153.12	11.62
313.15 K, x1 = 0.2468	1164.79	18.25
313.15 K, x1 = 0.3028	1174.44	29.54
313.15 K, x1 = 0.3503	1180.31	43.93
313.15 K, x1 = 0.4097	1185.82	70.78
313.15 K, x1 = 0.445	1188.67	94.43
313.15 K, x1 = 1	1177.58	–
318.15 K, x1 = 0.0313	1044.36	1.152
318.15 K, x1 = 0.0592	1076.94	1.849
318.15 K, x1 = 0.0944	1105.32	3.055
318.15 K, x1 = 0.1301	1125.43	4.98
318.15 K, x1 = 0.1566	1136.58	6.632
318.15 K, x1 = 0.1964	1149.57	9.734
318.15 K, x1 = 0.2468	1161.33	14.99
318.15 K, x1 = 0.3028	1171.04	23.75
318.15 K, x1 = 0.3503	1176.97	35.02
318.15 K, x1 = 0.4097	1182.56	55.19
318.15 K, x1 = 0.445	1185.43	73.04
318.15 K, x1 = 1	1173.84	–
323.15 K, x1 = 0.0313	1041.42	1.018
323.15 K, x1 = 0.0592	1073.59	1.61
323.15 K, x1 = 0.0944	1101.75	2.62
323.15 K, x1 = 0.1301	1121.81	4.239
323.15 K, x1 = 0.1566	1132.97	5.594
323.15 K, x1 = 0.1964	1146.01	8.098
323.15 K, x1 = 0.2468	1157.86	12.24
323.15 K, x1 = 0.3028	1167.63	19.02
323.15 K, x1 = 0.3503	1173.62	27.61
323.15 K, x1 = 0.4097	1179.3	43.02
323.15 K, x1 = 0.445	1182.19	56.06
323.15 K, x1 = 1	1170.12	–
328.15 K, x1 = 0.0313	1038.21	0.901
328.15 K, x1 = 0.0592	1070.18	1.406
328.15 K, x1 = 0.0944	1098.14	2.253
328.15 K, x1 = 0.1301	1118.16	3.594
328.15 K, x1 = 0.1566	1129.34	4.737
328.15 K, x1 = 0.1964	1142.42	6.779
328.15 K, x1 = 0.2468	1154.37	10.1
328.15 K, x1 = 0.3028	1164.2	15.38
328.15 K, x1 = 0.3503	1170.27	22.07
328.15 K, x1 = 0.4097	1176.04	33.82
328.15 K, x1 = 0.445	1178.95	43.84
328.15 K, x1 = 1	1166.42	–
333.15 K, x1 = 0.0313	1034.52	0.806
333.15 K, x1 = 0.0592	1066.7	1.238
333.15 K, x1 = 0.0944	1094.49	1.961
333.15 K, x1 = 0.1301	1114.49	3.084
333.15 K, x1 = 0.1566	1125.68	4.048
333.15 K, x1 = 0.1964	1138.81	5.734
333.15 K, x1 = 0.2468	1150.85	8.449
333.15 K, x1 = 0.3028	1160.77	12.68
333.15 K, x1 = 0.3503	1166.91	18.16
333.15 K, x1 = 0.4097	1172.78	27.16
333.15 K, x1 = 0.445	1175.7	35.05
333.15 K, x1 = 1	1162.75	–
338.15 K, x1 = 0.0313	1031.9	0.735
338.15 K, x1 = 0.0592	1063.16	1.117
338.15 K, x1 = 0.0944	1090.8	1.75
338.15 K, x1 = 0.1301	1110.78	2.707
338.15 K, x1 = 0.1566	1121.99	3.551
338.15 K, x1 = 0.1964	1135.18	4.983
338.15 K, x1 = 0.2468	1147.32	7.259
338.15 K, x1 = 0.3028	1157.32	10.76
338.15 K, x1 = 0.3503	1163.54	15.24
338.15 K, x1 = 0.4097	1169.46	22.53
338.15 K, x1 = 0.445	1172.45	28.48
338.15 K, x1 = 1	1159.1	–
343.15 K, x1 = 0.0313	1026.38	0.661
343.15 K, x1 = 0.0592	1059.56	0.991
343.15 K, x1 = 0.0944	1087.07	1.532
343.15 K, x1 = 0.1301	1107.04	2.328
343.15 K, x1 = 0.1566	1118.28	3.039
343.15 K, x1 = 0.1964	1131.53	4.253
343.15 K, x1 = 0.2468	1143.76	6.138
343.15 K, x1 = 0.3028	1153.87	9.006
343.15 K, x1 = 0.3503	1160.16	12.52
343.15 K, x1 = 0.4097	1166.21	18.43
343.15 K, x1 = 0.445	1169.19	22.9
343.15 K, x1 = 1	1155.48	–
